Data on 20 compounds can be found in US9266835B2, “Quinoline derivatives useful as CB-1 inverse agonists” (JANSSEN PHARMACEUTICA NV, priority 2014, dated 2016).

Structures can show the parent of a compound that is named as a salt.

The target of assay [1] is Human CB1R (Cannabinoid receptor 1) (Homo sapiens (Human), UniProt P21554). Description: CB-1 in vitro cAMP assay (HTRF), inverse agonism. To be noted: mean where tested more than once. Type of assay: cell-based.
Assay [2] has as its target Human CB2R (Cannabinoid receptor 2) (Homo sapiens (Human), UniProt P34972). The assay is described as follows: CB-2 in vitro cAMP assay (HTRF), inverse agonism. Type of assay: cell-based. Particulars: mean where tested more than once.

Human CB2R (Cannabinoid receptor 2), sequence (P34972 whole entry): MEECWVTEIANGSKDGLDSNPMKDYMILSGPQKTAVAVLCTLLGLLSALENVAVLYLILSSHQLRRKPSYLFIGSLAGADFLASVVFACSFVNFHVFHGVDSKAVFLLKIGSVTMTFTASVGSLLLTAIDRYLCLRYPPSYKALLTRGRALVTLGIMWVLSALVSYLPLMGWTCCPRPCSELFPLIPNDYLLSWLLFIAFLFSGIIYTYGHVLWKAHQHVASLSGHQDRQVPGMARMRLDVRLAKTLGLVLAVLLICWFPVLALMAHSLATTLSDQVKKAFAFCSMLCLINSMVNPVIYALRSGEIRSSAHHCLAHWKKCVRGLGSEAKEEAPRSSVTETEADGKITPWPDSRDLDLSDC
Human CB1R (Cannabinoid receptor 1), sequence (P21554 whole entry): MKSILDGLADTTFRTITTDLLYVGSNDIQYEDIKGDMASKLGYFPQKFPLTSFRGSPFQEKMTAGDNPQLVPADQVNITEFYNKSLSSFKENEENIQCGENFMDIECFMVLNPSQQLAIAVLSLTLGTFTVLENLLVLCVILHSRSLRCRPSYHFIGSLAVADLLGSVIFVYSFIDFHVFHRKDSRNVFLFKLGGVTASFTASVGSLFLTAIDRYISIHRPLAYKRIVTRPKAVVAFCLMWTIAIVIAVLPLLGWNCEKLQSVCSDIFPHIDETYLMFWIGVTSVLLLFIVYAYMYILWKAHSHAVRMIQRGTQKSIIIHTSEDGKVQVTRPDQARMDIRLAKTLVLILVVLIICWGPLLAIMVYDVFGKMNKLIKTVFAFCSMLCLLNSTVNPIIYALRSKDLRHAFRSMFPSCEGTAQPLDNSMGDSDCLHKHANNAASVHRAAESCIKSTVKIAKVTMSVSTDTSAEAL

Turning to `O=c1cc(NC2CCN(S(=O)(=O)C(F)(F)F)CC2)c2cc(C(c3ccc(Cl)cc3)c3ccc(Cl)cc3)cc(NC3CCN(S(=O)(=O)C(F)(F)F)CC3)c2[nH]1` [Compound 99], the EC50 in assay [1] and in assay [2] was over 10000 nM each time.

In the case of `OC(c1ccc(Cl)cc1)(c1ccsc1)c1ccc2nccc(/C=C/c3ccccc3)c2c1` (stereo not shown) [Compound 507, (4-Chlorophenyl){4-[(E)-2-phenylethenyl]quinolin-6-yl}thiophen-3-ylmethanol], the EC50 was 5480 nM in assay [1] and over 10000 nM in assay [2].

As for `NC(=O)CC(=O)N1CCC(Nc2cc(=O)[nH]c3ccc(C(c4ccc(Cl)cc4)c4ccc(Cl)cc4)cc23)CC1` [Compound 106, 3-(4-((6-(bis(4-chlorophenyl)methyl)-2-oxo-1,2-dihydroquinolin-4-yl)amino)piperidin-1-yl)-3-oxopropanamide], the concentration giving a half-maximal response (EC50) was found to be 1550 nM in assay [1] and 6500 nM in assay [2].

As for `O=C(O)CN1CCC(Nc2cc(=O)[nH]c3ccc(C(c4ccc(Cl)cc4)c4ccc(Cl)cc4)cc23)CC1` [Compound 117, [4-({6-[Bis(4-chlorophenyl)methyl]-2-oxo-1,2-dihydroquinolin-4-yl}amino)piperidin-1-yl]acetic acid], the EC50 in assay [1] was 9700 nM; in assay [2], over 10000 nM.

With `NCCCCOc1cc(C(c2ccc(Cl)cc2)c2ccc(Cl)cc2)cc2c(NC3CCN(S(=O)(=O)C(F)(F)F)CC3)ccnc12` [Compound 542, 8-(4-aminobutoxy)-6-(bis(4-chlorophenyl)methyl)-N-(1-((trifluoromethyl)sulfonyl)piperidin-4-yl)quinolin-4-amine, trifluoroacetic acid salt], the figures for the concentration for a half-maximal effect (EC50) in assay [1] and in assay [2] were 144 nM and over 10000 nM, respectively.

On to `O=C(N1CC=C(c2cc(=O)[nH]c3ccc(C(c4ccc(Cl)cc4)c4ccc(Cl)cc4)cc23)CC1)C(F)(F)F` [Compound 14, 6-(bis(4-chlorophenyl)methyl)-4-(1-(2,2,2-trifluoroacetyl)-1,2,3,6-tetrahydropyridin-4-yl)quinolin-2(1H)-one], for which the EC50 in assay [1] was 254 nM; in assay [2], over 10000 nM.

Consider `CCCCNc1cc(C(c2ccc(Cl)cc2)c2ccc(Cl)cc2)cc2c(NC3CCN(S(=O)(=O)C(F)(F)F)CC3)cc(=O)n(C)c12` [Compound 139, 6-[bis(4-chlorophenyl)methyl]-8-(butylamino)-1-methyl-4-[[1-(trifluoromethane)sulfonylpiperidin-4-yl]amino]-1,2-dihydroquinolin-2-one], for which the EC50 in assay [1] and in assay [2] was over 10000 nM throughout.

Turning to `CC(C)(C)OC(=O)/N=C(/NC(=O)OC(C)(C)C)N1CCC(Nc2cc(=O)[nH]c3ccc(C(c4ccc(Cl)cc4)c4ccc(Cl)cc4)cc23)CC1` [Compound 119, (Z)-tert-butyl ((4-((6-(bis(4-chlorophenyl)methyl)-2-oxo-1,2-dihydroquinolin-4-yl)amino)piperidin-1-yl)((tert-butoxycarbonyl)imino)methyl)carbamate], the EC50 was 128 nM in assay [1] and over 10000 nM in assay [2].

For the compound `O=c1cc(/C=C\c2ccc(C(F)(F)F)cc2)c2cc(C(c3ccc(Cl)cc3)c3cccs3)ccc2[nH]1` (stereo not shown) [Compound 18, 6-[(4-Chlorophenyl)(thiophen-2-yl)methyl]-4-{(Z)-2-[4-(trifluoromethyl)phenyl]-ethenyl}quinolin-2(1H)-one], the concentration giving a half-maximal response (EC50) in assay [1] is 875 nM; in assay [2], over 10000 nM.

Consider `COc1ccc(C(O)(c2ccc3nccc(/C=C/c4ccccc4)c3c2)c2nccs2)cc1` (stereo not shown) [Compound 504, (E)-(4-methoxyphenyl)(4-styrylquinolin-6-yl)(thiazol-2-yl)methanol], for which the half-maximal effective concentration (EC50) in assay [1] is 342 nM; in assay [2], over 10000 nM.

With `COCCOc1cc(NC2CCN(S(=O)(=O)C(F)(F)F)CC2)c2cc(C(c3ccc(Cl)cc3)c3ccc(Cl)cc3)ccc2n1` [Compound 530, 6-(bis(4-chlorophenyl)methyl)-2-(2-methoxyethoxy)-N-(1-((trifluoromethyl)sulfonyl)piperidin-4-yl)quinolin-4-amine], the concentration for a half-maximal effect (EC50) in assay [1] is 23 nM; in assay [2], over 10000 nM.

For the compound `O=c1cc(NC2CCCCC2)c2cc(C(c3ccc(Cl)cc3)c3ccc(Cl)cc3)ccc2[nH]1` [Compound #71, 6-(bis(4-chlorophenyl)methyl)-4-(cyclohexylamino)quinolin-2(1H)-one], the concentration for a half-maximal effect (EC50) was 7 nM in assay [1] and over 10000 nM in assay [2].

For the compound `COc1cc(NC2CCN(S(=O)(=O)C(F)(F)F)CC2)c2cc(C(c3ccc(Cl)cc3)c3ccc(Cl)cc3)cc(/C=C/CO)c2n1` [Compound 549, (2E)-3-[6-[bis(4-chlorophenyl)methyl]-2-methoxy-4-[[1-(trifluoromethane)sulfonylpiperidin-4-yl]amino]quinolin-8-yl]prop-2-en-1-ol], the 50% effective concentration (EC50) was determined as 36 nM in assay [1] and 3800 nM in assay [2].

As for `O=C(O)COc1cc(NC2CCN(S(=O)(=O)C(F)(F)F)CC2)c2cc(C(c3ccc(Cl)cc3)c3ccc(Cl)cc3)ccc2n1` [Compound 532, ({6-[Bis(4-chlorophenyl)methyl]-4-({1-[(trifluoromethyl)sulfonyl]-piperidin-4-yl}amino)quinolin-2-yl}oxy)acetic acid], the EC50 in assay [1] was found to be 1280 nM; in assay [2], 6700 nM.

As for `Cn1c(=O)cc(NC2CCN(S(=O)(=O)C(F)(F)F)CC2)c2cc(C(c3ccc(Cl)cc3)c3nccs3)ccc21` (stereo not shown) [Compound 89, 6-[(4-chlorophenyl)(1,3-thiazol-2-yl)methyl]-1-methyl-4-[[1-(trifluoromethane)sulfonylpiperidin-4-yl]amino]-1,2-dihydroquinolin-2-one], the EC50 in assay [1] was determined as 14 nM; in assay [2] it was 9900 nM.

Turning to `O=c1cc(NCc2ccc(C(F)(F)F)cn2)c2cc(C(c3ccc(Cl)cc3)c3ccc(Cl)cc3)ccc2[nH]1` [Compound 78, 6-[Bis(4-chlorophenyl)methyl]-4-({[5-(trifluoromethyl)pyridin-2-yl]methyl}amino)quinolin-2(1H)-one], the figures for the 50% effective concentration (EC50) in assay [1] and in assay [2] were 168 nM and over 10000 nM, respectively.

`O=C(O)c1ccc(CN2CCC(Nc3cc(=O)[nH]c4ccc(C(c5ccc(Cl)cc5)c5ccc(Cl)cc5)cc34)CC2)cc1` [Compound 127, 4-{[4-({6-[Bis(4-chlorophenyl)methyl]-2-oxo-1,2-dihydroquinolin-4-yl}amino)piperidin-1-yl]methyl}benzoic acid]: the figures for the EC50 in assay [1] and in assay [2] were 876 nM and over 10000 nM, respectively.

As for `O=c1cc(NC2CCN(c3ccccc3)CC2)c2cc(C(c3ccc(Cl)cc3)c3ccc(Cl)cc3)ccc2[nH]1` [Compound 60, 6-[bis(4-chlorophenyl)methyl]-4-[(1-phenylpiperidin-4-yl)amino]quinolin-2-ol], the figures for the EC50 in assay [1] and in assay [2] were 6 nM and over 10000 nM, respectively.

As to `COc1ccc(C(c2ccc3nccc(/C=C/c4ccccc4)c3c2)c2nccs2)cc1` (stereo not shown) [Compound 505, (E)-2-((4-methoxyphenyl)(4-styrylquinolin-6-yl)methyl)thiazole], the EC50 in assay [1] was 326 nM; in assay [2] it was over 10000 nM.

As to `OC(c1ccc(Cl)cc1)(c1ccc2nccc(/C=C\c3ccccc3)c2c1)c1cscn1` (mixture of isomers) [Compound 516, (Z)-(4-chlorophenyl)(4-styrylquinolin-6-yl)(thiazol-4-yl)methanol], the EC50 in assay [1] worked out at 3270 nM; in assay [2] it was 200 nM.

Usually EC50 stands for the concentration giving half of the maximal effect. The low end stands for greater potency, the high end for weaker potency.
